In the NIST ThermoML archive (doi:10.1021/acs.jced.8b00358):

How the values were obtained:
[1] = molar heat capacity at constant pressure; conditions: 83 kPa, Liquid, DSC
[2] = 83 kPa, Liquid; for speed of sound: Frequency=3 MHz, Single path-length method; for mass density: Vibrating tube method

CCCCCCC(=O)OCC(COC(=O)CCCCCC)(COC(=O)CCCCCC)COC(=O)CCCCCC [pentaerythritol tetraheptanoate]
Conditions | mass density [kg/m3] | molar heat capacity at constant pressure [J/K/mol] | speed of sound [m/s]
[1], 293.14 K | – | 1059.1 | –
[1], 294.14 K | – | 1060.3 | –
[1], 295.14 K | – | 1062 | –
[1], 296.14 K | – | 1063.8 | –
[1], 297.14 K | – | 1065.6 | –
[1], 298.14 K | – | 1066.7 | –
[1], 299.14 K | – | 1068.5 | –
[1], 300.14 K | – | 1070.2 | –
[1], 301.14 K | – | 1071.4 | –
[1], 302.14 K | – | 1073.2 | –
[1], 303.14 K | – | 1074.9 | –
[1], 304.14 K | – | 1076.1 | –
[1], 305.14 K | – | 1077.8 | –
[1], 306.14 K | – | 1079 | –
[1], 307.14 K | – | 1080.8 | –
[1], 308.14 K | – | 1082.5 | –
[1], 309.14 K | – | 1083.7 | –
[1], 310.14 K | – | 1085.4 | –
[1], 311.14 K | – | 1086.6 | –
[1], 312.14 K | – | 1088.4 | –
[1], 313.14 K | – | 1090.1 | –
[1], 314.14 K | – | 1091.9 | –
[1], 315.14 K | – | 1093 | –
[1], 316.14 K | – | 1094.8 | –
[1], 317.14 K | – | 1096.5 | –
[1], 318.14 K | – | 1098.3 | –
[1], 319.14 K | – | 1099.5 | –
[1], 320.14 K | – | 1101.2 | –
[1], 321.14 K | – | 1103 | –
[1], 322.13 K | – | 1104.1 | –
[1], 323.14 K | – | 1105.9 | –
[1], 324.14 K | – | 1107.7 | –
[1], 325.14 K | – | 1108.8 | –
[1], 326.14 K | – | 1110.6 | –
[1], 327.14 K | – | 1112.3 | –
[1], 328.14 K | – | 1114.1 | –
[1], 329.14 K | – | 1115.8 | –
[1], 330.14 K | – | 1117 | –
[1], 331.14 K | – | 1118.8 | –
[1], 332.14 K | – | 1120.5 | –
[1], 333.14 K | – | 1121.7 | –
[1], 334.13 K | – | 1123.4 | –
[1], 335.14 K | – | 1125.2 | –
[1], 336.14 K | – | 1127 | –
[1], 337.14 K | – | 1128.1 | –
[1], 338.14 K | – | 1129.9 | –
[1], 339.14 K | – | 1131.6 | –
[1], 340.14 K | – | 1133.4 | –
[1], 341.13 K | – | 1134.6 | –
[1], 342.14 K | – | 1136.3 | –
[1], 343.14 K | – | 1138.1 | –
[1], 344.14 K | – | 1139.8 | –
[1], 345.13 K | – | 1141.6 | –
[1], 346.14 K | – | 1143.3 | –
[1], 347.14 K | – | 1145.1 | –
[1], 348.14 K | – | 1146.3 | –
[1], 349.14 K | – | 1148 | –
[1], 350.14 K | – | 1149.8 | –
[1], 351.14 K | – | 1151.5 | –
[1], 352.14 K | – | 1153.3 | –
[1], 353.14 K | – | 1154.4 | –
[1], 354.14 K | – | 1156.2 | –
[1], 355.14 K | – | 1158 | –
[1], 356.14 K | – | 1159.7 | –
[1], 357.14 K | – | 1160.9 | –
[1], 358.14 K | – | 1162.6 | –
[1], 359.14 K | – | 1164.4 | –
[1], 360.14 K | – | 1166.1 | –
[1], 361.14 K | – | 1167.9 | –
[1], 362.14 K | – | 1169.1 | –
[1], 363.14 K | – | 1170.8 | –
[1], 364.14 K | – | 1172.6 | –
[1], 365.14 K | – | 1174.3 | –
[1], 366.14 K | – | 1176.1 | –
[1], 367.14 K | – | 1177.3 | –
[1], 368.14 K | – | 1179 | –
[1], 369.14 K | – | 1180.8 | –
[1], 370.14 K | – | 1182.5 | –
[1], 371.14 K | – | 1184.3 | –
[1], 372.14 K | – | 1185.4 | –
[1], 373.14 K | – | 1187.2 | –
[1], 374.14 K | – | 1188.9 | –
[1], 375.14 K | – | 1190.7 | –
[1], 376.14 K | – | 1192.5 | –
[1], 378.14 K | – | 1196 | –
[1], 379.14 K | – | 1197.7 | –
[1], 380.14 K | – | 1198.9 | –
[1], 381.14 K | – | 1200.6 | –
[1], 382.14 K | – | 1202.4 | –
[1], 383.14 K | – | 1204.2 | –
[1], 384.14 K | – | 1205.9 | –
[1], 385.14 K | – | 1207.7 | –
[1], 386.14 K | – | 1209.4 | –
[1], 387.14 K | – | 1211.2 | –
[1], 388.14 K | – | 1212.9 | –
[1], 389.14 K | – | 1214.1 | –
[1], 390.14 K | – | 1215.9 | –
[1], 391.14 K | – | 1217.6 | –
[1], 392.14 K | – | 1219.4 | –
[1], 393.14 K | – | 1220.5 | –
[1], 394.14 K | – | 1222.3 | –
[1], 395.14 K | – | 1224 | –
[1], 396.14 K | – | 1225.2 | –
[1], 397.14 K | – | 1227 | –
[1], 398.14 K | – | 1228.7 | –
[1], 399.14 K | – | 1230.5 | –
[1], 400.14 K | – | 1232.2 | –
[1], 401.14 K | – | 1234 | –
[1], 402.14 K | – | 1235.7 | –
[1], 403.14 K | – | 1236.9 | –
[1], 404.14 K | – | 1238.7 | –
[1], 405.14 K | – | 1240.4 | –
[1], 406.14 K | – | 1242.2 | –
[1], 407.14 K | – | 1243.9 | –
[1], 408.14 K | – | 1245.7 | –
[1], 409.14 K | – | 1247.4 | –
[1], 410.14 K | – | 1248.6 | –
[1], 411.14 K | – | 1250.4 | –
[1], 412.13 K | – | 1252.1 | –
[1], 413.14 K | – | 1253.9 | –
[1], 414.13 K | – | 1255.6 | –
[1], 415.14 K | – | 1257.4 | –
[1], 416.14 K | – | 1258.5 | –
[1], 417.14 K | – | 1260.3 | –
[2], 278.15 K | 989.09 | – | 1435
[2], 283.15 K | 985.27 | – | 1417.7
[2], 288.15 K | 981.48 | – | 1400.7
[2], 293.15 K | 977.69 | – | 1383.8
[2], 298.15 K | 973.91 | – | 1367
[2], 303.15 K | 970.14 | – | 1350.3
[2], 308.15 K | 966.38 | – | 1333.9
[2], 313.15 K | 962.62 | – | 1317.8
[2], 318.15 K | 958.87 | – | 1301.9
[2], 323.15 K | 955.13 | – | 1286.1
[2], 328.15 K | 951.39 | – | 1270.4
[2], 333.15 K | 947.66 | – | 1254.9
[2], 338.15 K | 943.92 | – | 1239.6
[2], 343.15 K | 940.2 | – | 1224.5
